Broadly, the IC50 is the concentration that inhibits the measured activity by half. A word on the EC50: it is the concentration giving half of the maximal effect.

Consider 27 compounds from US20100075965A1, “PI3 KINASE INHIBITORS AND METHODS OF THEIR USE” (Novartis AG, priority 2006, published 2010).

Where two headings read alike, the source gives them in different places.

Experiment [1] deals with PI3 K Alpha (Homo sapiens, UniProt P42336). The experiment can be described thus: PI3 kinase phosphorylation assays (homogenous solution phase, one step solid phase, ATP depletion/KinaseGlo). The class given is biochemical. Background: Kinase-Glo measures the ATP left after a reaction by luminescence.
The subject of experiment [2] is A2780 cells. The experiment can be described thus: Viability assay in A2780 (Cell Titer Glo). The class given is cell-based, human. Conditions: Homo sapiens. Put shortly: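 EC50 values come from Cell Titer Glo luminescence after 72 hrs of compound exposure at 37° C, run in duplicate. A2780 cells were plated at 1,000 per well in DMEM with 10% FBS and dosed with 3-fold serial dilutions.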

Experiment [3] deals with pSer473-Akt in A2780 cells. The experiment can be described thus: pSer473 Akt assay to monitor PI3K pathway in A2780 cells (MSD). The class given is cell-based. Conditions: Homo sapiens. Put shortly: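 EC50 is derived from percent inhibition of Akt Ser473 phosphorylation, normalised to total Akt and compared with DMSO-only wells, read by MSD immunoassay. Lysates came from A2780 cells plated overnight at 15,000/well and exposed to compound for one hour at 37 °C.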

Setting [4] is: A2780 cells, read-out: A2780 Cell prolif. EC50.
The mark [5] stands for this setting: A2780 cells, read-out: A2780 pAKT 473 EC50.
Setting [6] is: A2780, read-out: A2780 Cell prolif. EC50.
The mark [7] stands for this setting: A2780, read-out: A2780 pAKT 473 EC50.
Where [8] appears, read: ATP depletion assay, read-out: PI3 K Alpha IC50.
Where [9] appears, read: A2780 cells, 72 hrs, read-out: A2780 Cell prolif. EC50.
The mark [10] stands for this setting: 1 h, A2780 cells, one hour incubation, read-out: A2780 pAKT473 EC50.

Chain of PI3 K Alpha (P42336 whole entry): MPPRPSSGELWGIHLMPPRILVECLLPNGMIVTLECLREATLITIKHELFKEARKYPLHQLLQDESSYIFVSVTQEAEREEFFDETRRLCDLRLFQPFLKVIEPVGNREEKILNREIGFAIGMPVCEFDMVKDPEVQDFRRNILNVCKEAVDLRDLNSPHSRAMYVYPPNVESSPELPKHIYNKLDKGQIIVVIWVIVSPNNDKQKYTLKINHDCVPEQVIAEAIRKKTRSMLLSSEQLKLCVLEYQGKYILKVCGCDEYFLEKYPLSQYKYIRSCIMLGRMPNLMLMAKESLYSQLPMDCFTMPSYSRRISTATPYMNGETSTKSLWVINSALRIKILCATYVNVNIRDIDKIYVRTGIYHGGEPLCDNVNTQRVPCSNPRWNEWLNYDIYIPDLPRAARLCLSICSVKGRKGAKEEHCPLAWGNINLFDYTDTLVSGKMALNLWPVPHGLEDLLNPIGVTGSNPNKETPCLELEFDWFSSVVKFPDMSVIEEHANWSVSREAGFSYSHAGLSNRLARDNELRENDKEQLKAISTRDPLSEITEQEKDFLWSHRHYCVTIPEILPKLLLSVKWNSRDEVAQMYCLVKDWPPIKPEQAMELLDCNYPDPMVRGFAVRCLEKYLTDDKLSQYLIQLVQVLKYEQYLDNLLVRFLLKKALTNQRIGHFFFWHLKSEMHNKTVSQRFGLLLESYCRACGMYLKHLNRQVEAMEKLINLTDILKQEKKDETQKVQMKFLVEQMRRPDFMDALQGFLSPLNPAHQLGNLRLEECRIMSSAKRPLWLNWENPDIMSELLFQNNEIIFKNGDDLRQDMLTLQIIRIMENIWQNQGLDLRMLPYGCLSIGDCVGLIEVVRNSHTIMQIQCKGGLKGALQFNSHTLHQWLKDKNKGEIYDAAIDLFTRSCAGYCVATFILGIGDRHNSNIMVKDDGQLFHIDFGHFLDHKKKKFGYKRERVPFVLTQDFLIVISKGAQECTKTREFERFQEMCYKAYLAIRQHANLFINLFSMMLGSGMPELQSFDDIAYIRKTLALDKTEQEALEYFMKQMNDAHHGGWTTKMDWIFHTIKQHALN
Chain of PI3 K Alpha (P27986 whole entry partner): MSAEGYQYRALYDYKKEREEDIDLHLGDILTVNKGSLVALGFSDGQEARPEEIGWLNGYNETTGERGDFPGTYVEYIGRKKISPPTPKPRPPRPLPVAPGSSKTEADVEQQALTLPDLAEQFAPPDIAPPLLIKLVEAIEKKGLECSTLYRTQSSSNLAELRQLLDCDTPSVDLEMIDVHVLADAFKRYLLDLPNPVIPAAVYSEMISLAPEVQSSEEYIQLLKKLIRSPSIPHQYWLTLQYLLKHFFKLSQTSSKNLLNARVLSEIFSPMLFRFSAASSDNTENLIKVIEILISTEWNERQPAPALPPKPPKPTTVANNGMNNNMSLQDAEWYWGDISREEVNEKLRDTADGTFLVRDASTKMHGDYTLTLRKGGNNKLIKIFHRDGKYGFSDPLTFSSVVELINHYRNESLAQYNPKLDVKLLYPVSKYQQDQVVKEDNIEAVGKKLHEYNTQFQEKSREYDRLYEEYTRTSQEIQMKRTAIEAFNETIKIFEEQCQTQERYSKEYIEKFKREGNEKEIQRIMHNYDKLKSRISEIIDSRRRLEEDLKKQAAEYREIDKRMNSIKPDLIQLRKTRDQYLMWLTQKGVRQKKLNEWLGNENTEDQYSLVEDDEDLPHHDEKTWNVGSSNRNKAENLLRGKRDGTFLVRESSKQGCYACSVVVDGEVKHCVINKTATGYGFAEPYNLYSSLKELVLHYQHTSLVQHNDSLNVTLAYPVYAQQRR

For `CC(C)(C)OC(=O)N1CC[C@@H](OCC(=O)Nc2cn3nc(-c4cnc(N)c(C(F)(F)F)c4)ccc3n2)C1` [Example 102, (R)-tert-butyl 3-(2-(6-(6-amino-5-(trifluoromethyl)pyridin-3-yl)imidazo[1,2-b]pyridazin-2-ylamino)-2-oxoethoxy) pyrrolidine-1-carboxylate], the IC50 in experiment [1] (read-out: PI3K Alpha IC50) was < 1000 nM. The EC50 in experiment [2] (setting [4]) and in experiment [3] (setting [5]) was < 1000 nM in each case.

Take `CC(=O)Nc1cn2cc(-c3cnc(N)cc3F)ccc2n1` [Example 29, N-[6-(6-Amino-4-fluoro-pyridin-3-yl)-imidazo[1,2-a]pyridin-2-yl]-acetamide]: the IC50 in experiment [1] (read-out: PI3K Alpha IC50) is < 1000 nM. For the same compound, the EC50 was < 25000 nM in experiment [2] (setting [4]) and < 10000 nM in experiment [3] (setting [5]).

Regarding `CC(=O)Nc1nc2ccc(-c3cnc(N)c(C(F)(F)F)c3)cn2c1C#Cc1ccncc1` [Example 68, N-(6-(6-amino-5-(trifluoromethyl)pyridin-3-4-ylethynyl)imi-dazo[1,2-a]pyridin-2-yl)acetamide], the IC50 in experiment [1] was < 1000 nM. Further, the EC50 in experiment [2] (setting [6]) and in experiment [3] (setting [7]) was < 1000 nM in each case.

As to `Nc1ncc(-c2ccc3nc(NC(=O)c4ccc(F)cc4)cn3c2)cc1C(F)(F)F` [Example 78, N-(6-(6-amino-5-(trifluoromethyl)pyridin-3-yl)imidazo[1,2-a]pyridin-2-yl)-4-fluorobenzamide], the IC50 in experiment [1] (read-out: PI3K Alpha IC50) was < 1000 nM. Also, the EC50 in experiment [2] (setting [4]) and in experiment [3] (setting [5]) was < 1000 nM throughout.

`CC(=O)Nc1nc2ccc(-c3cnc(N)c(OCC(F)(F)F)n3)cc2s1` [Example 2-37, N-(6-(5-amino-6-(2,2,2-trifluoroethoxy)pyrazin-2-yl)benzo[d]thiazol-2-yl)acetamide]: the IC50 in experiment [1] (setting [8]) is < 1000 nM. For the same compound, the EC50 in experiment [2] (setting [9]) and in experiment [3] (setting [10]) was < 1000 nM each time.

With `Nc1ncc(-c2ccc3nc(NC(=O)CCO)cn3c2)cc1C(F)(F)F` [Example 205, N-(6-(6-amino-5-(trifluoromethyl)pyridin-3-yl)imidazo[1,2-a]pyridin-2-yl)-3-hydroxypropanamide], the IC50 in experiment [1] (read-out: PI3K Alpha IC50) was < 1000 nM. Further, the values for the EC50 in experiment [2] (setting [4]) and in experiment [3] (setting [5]) were < 10000 nM and < 1000 nM, respectively.

In the case of `CC(=O)Nc1cn2cc(-c3cnc(N)c(-c4ccccc4OC(F)(F)F)c3)ccc2n1` [Example 121, N-(6-(6-amino-5-(2-(trifluoromethoxy)phenyl)pyridin-3-yl)imidazo[1,2-a]pyridin-2-yl)acetamide], in experiment [1] (read-out: PI3K Alpha IC50), the IC50 was < 1000 nM. Also, the EC50 was < 10000 nM in experiment [2] (setting [4]) and < 1000 nM in experiment [3] (setting [5]).

With `Nc1ncc(-c2ccc3nc(NC(=O)CCCN4CCOCC4)sc3c2)cn1` [Example 2-11, N-[6-(2-Amino-pyrimidin-5-yl)-benzothiazol-2-yl]-4-morpholin-4-yl-butyramide], the IC50 in experiment [1] (setting [8]) was < 1000 nM. The EC50 in experiment [2] (setting [9]) is < 10000 nM; in experiment [3] (setting [10]), < 1000 nM.

On to `C/C=C/c1c(NC(C)=O)nc2ccc(-c3cnc(N)c(C(F)(F)F)c3)cn12` [Example 193, (E)-N-(6-(6-amino-5-(trifluoromethyl)pyridin-3-yl)-3-(prop-1-enyl)imidazo[1,2-a]pyridin-2-yl)acetamide], for which, in experiment [1] (read-out: PI3K Alpha IC50), the IC50 was < 1000 nM. Also, the EC50 in experiment [2] (setting [4]) and in experiment [3] (setting [5]) was < 10000 nM each time.

Turning to `COCC(=O)Nc1cn2cc(-c3cnc(N)c(OCC(F)(F)F)n3)ccc2n1` [Example 89], the IC50 in experiment [1] (read-out: PI3K Alpha IC50) is < 1000 nM. The EC50 in experiment [2] (setting [4]) and in experiment [3] (setting [5]) was < 1000 nM each time.

Take `CCN(CC)C(=O)c1cc(-c2ccc3nc(NC(C)=O)cn3c2)cnc1N` [Example 218, 5-(2-acetamido-imidazo[1,2-a]pyridin-6-yl)-2-amino-N,N-diethyl-nicotinamide]: in experiment [1] (read-out: PI3K Alpha IC50), the IC50 is < 1000 nM. Further, the figures for the EC50 in experiment [2] (setting [4]) and in experiment [3] (setting [5]) were < 10000 nM and < 1000 nM, respectively.

With `COc1nc(-c2ccc3nc(NC(C)=O)cn3n2)cnc1N` [Example 130, N-(6-(5-amino-6-methoxypyrazin-2-yl)imidazo[1,2-b]pyridazin-2-yl)acetamide], in experiment [1] (read-out: PI3K Alpha IC50), the IC50 is < 1000 nM. Also, the EC50 was < 10000 nM in experiment [2] (setting [4]) and < 1000 nM in experiment [3] (setting [5]).

`Nc1ncc(-c2ccc3nc(NC(=O)C(F)(F)F)cn3c2)cn1` [Example 2, N-[6-(2-Amino-pyrimidin-5-yl)-imidazo[1,2-a]pyridin-2-yl]-2,2,2-trifluoro-acetamide]: the IC50 in experiment [1] (read-out: PI3K Alpha IC50) is < 1000 nM. The EC50 in experiment [2] (setting [4]) and in experiment [3] (setting [5]) was < 25000 nM in each case.

In the case of `Nc1ncc(-c2ccc3nc(NC(=O)c4cccnc4)cn3c2)cc1C(F)(F)F` [Example 123, N-(6-(6-amino-5-(trifluoromethyl)pyridin-3-yl)imidazo[1,2-a]pyridin-2-yl)nicotinamide], in experiment [1] (read-out: PI3K Alpha IC50), the IC50 was < 1000 nM. For the same compound, the EC50 in experiment [2] (setting [4]) is < 10000 nM; in experiment [3] (setting [5]) it was < 1000 nM.

Consider `CC(=O)Nc1nc2ccc(-c3cnc(N)cc3C)cc2s1` [Example 2-18, N-[6-(6-Amino-4-methyl-pyridin-3-yl)-benzothiazol-2-yl]-acetamide], for which the IC50 in experiment [1] (setting [8]) is < 1000 nM. Moreover, the EC50 in experiment [2] (setting [9]) is < 25000 nM; in experiment [3] (setting [10]) it was < 10000 nM.

As for `CC(=O)Nc1cn2cc(-c3cnc(N)c(C#N)c3)ccc2n1` [Example 235, N-(6-(6-amino-5-cyanopyridin-3-yl)imidazo[1,2-a]pyridin-2-yl)acetamide], the IC50 in experiment [1] (read-out: PI3K Alpha IC50) was < 1000 nM. For the same compound, the EC50 in experiment [2] (setting [4]) and in experiment [3] (setting [5]) was < 10000 nM in each case.

For `COCCOc1nc(-c2ccc3nc(NC(=O)COC)cn3c2)cnc1N` [Example 196, N-(6-(5-amino-6-(2-methoxyethoxy)pyrazin-2-yl)imidazo[1,2-a]pyridin-2-yl)-2-methoxyacetamide], the IC50 in experiment [1] (read-out: PI3K Alpha IC50) was < 1000 nM. Besides, the results for the EC50 in experiment [2] (setting [4]) and in experiment [3] (setting [5]) were < 10000 nM and < 1000 nM, respectively.

Regarding `Nc1ncc(-c2ccc3nc(NC(=O)CO[C@H]4CCNC4)cn3n2)cc1C(F)(F)F` [Example 82, (S)-N-(6-(6-amino-5-(trifluoromethyl)pyridin-3-yl)imidazo[1,2-b]pyridazin-2-yl)-2-(pyrrolidin-3-yloxy)acetamide], the IC50 in experiment [1] (read-out: PI3K Alpha IC50) is < 1000 nM. Besides, the EC50 in experiment [2] (setting [4]) and in experiment [3] (setting [5]) was < 1000 nM throughout.

For `CC(=O)Nc1cn2cc(-c3cnc(N)c(Oc4ccccc4)n3)ccc2n1` [Example 75, N-(6-(5-amino-6-phenoxypyrazin-2-yl)imidazo[1,2-a]pyridin-2-yl)acetamide], the IC50 in experiment [1] (read-out: PI3K Alpha IC50) was < 1000 nM. The EC50 in experiment [2] (setting [4]) and in experiment [3] (setting [5]) was < 1000 nM each time.

`CC(=O)Nc1nc2ccc(-c3cnc(N)c(C(F)(F)F)c3)cn2c1C#Cc1ccccn1` [Example 241, N-(6-(6-amino-5-(trifluoromethyl)pyridin-3-yl)-3-(pyridin-2-ylethnyl)imi-dazo[1,2-a]pyridin-2-yl)acetamide]: the IC50 in experiment [1] was < 1000 nM. Also, the EC50 in experiment [2] (setting [6]) and in experiment [3] (setting [7]) was < 10000 nM each time.

Turning to `CN(C)CCCC(=O)Nc1cn2nc(-c3cnc(N)c(C(F)(F)F)c3)ccc2n1` [Example 66, N-(6-(6-amino-5-(trifluoromethyl)pyridin-3-yl)imidazo[1,2-b]pyridazin-2-yl)-4-(dimethylamino) butanamide], in experiment [1] (read-out: PI3K Alpha IC50), the IC50 was < 1000 nM. The concentration for a half-maximal effect (EC50) in experiment [2] (setting [4]) and in experiment [3] (setting [5]) was < 1000 nM in each case.

As for `CC(=O)Nc1nc2ccc(-c3cnc(N)c(CN(C)C)c3)cc2s1` [Example 2-25, N-[6-(6-Amino-5-dimethylamino-methyl-pyridin-3-yl)-benzothiazol-2-yl]-acetamide], the IC50 in experiment [1] (setting [8]) was < 1000 nM. Moreover, the EC50 in experiment [2] (setting [9]) was < 10000 nM; in experiment [3] (setting [10]) it was < 1000 nM.

On to `COC(=O)Nc1cn2cc(-c3cnc(N)c(C(F)(F)F)c3)ccc2n1` [Example 19, [6-(6-Amino-5-trifluoromethyl-pyridin-3-yl)-imidazo[1,2-a]pyridin-2-yl]-carbamic acid methyl ester], for which the half-inhibitory concentration (IC50) in experiment [1] (read-out: PI3K Alpha IC50) is < 1000 nM. Also, the EC50 was < 10000 nM in experiment [2] (setting [4]) and < 1000 nM in experiment [3] (setting [5]).

For `NCC(=O)Nc1cn2cc(-c3cnc(N)c(C(F)(F)F)c3)ccc2n1` [Example 215, 2-amino-N-(6-(6-amino-5-(trifluoromethyl)pyridin-3-yl)imidazo[1,2-a]pyridin-2-yl)acetamide], the IC50 in experiment [1] (read-out: PI3K Alpha IC50) was < 1000 nM. For the same compound, the EC50 in experiment [2] (setting [4]) and in experiment [3] (setting [5]) was < 10000 nM in each case.

With `CC(=O)Nc1nc2c(F)cc(-c3cnc(N)c(C(F)(F)F)c3)cc2s1` [Example 2-31, N-[6-(6-Amino-5-trifluoromethyl-pyridin-3-yl)-4-fluoro-benzothiazol-2-yl]-acetamide], in experiment [1] (setting [8]), the IC50 is < 1000 nM. Also, the EC50 in experiment [2] (setting [9]) was < 25000 nM; in experiment [3] (setting [10]), < 1000 nM.

Turning to `NCC(=O)Nc1cn2nc(-c3cnc(N)c(C(F)(F)F)c3)ccc2n1` [Example 77, 2-amino-N-(6-(6-amino-5-(trifluoromethyl)pyridin-3-yl)imidazo[1,2-b]pyridazin-2-yl)acetamide], the IC50 in experiment [1] (read-out: PI3K Alpha IC50) was < 1000 nM. In addition, the EC50 in experiment [2] (setting [4]) and in experiment [3] (setting [5]) was < 1000 nM throughout.

As for `CC(=O)Nc1cn2cc(-c3cnc(N)c(-c4ccc(C(F)(F)F)cc4)c3)ccc2n1` [Example 93, N-(6-(6-amino-5-(4-(trifluoromethyl)phenyl)pyridin-3-yl)imidazo[1,2-a]pyridin-2-yl)acetamide], the IC50 in experiment [1] (read-out: PI3K Alpha IC50) is < 1000 nM. Moreover, the EC50 in experiment [2] (setting [4]) and in experiment [3] (setting [5]) was < 1000 nM each time.
